In general, GI50 refers to the concentration giving 50% growth inhibition. Broadly, the inhibition is the drop in the measured response relative to a control, in per cent. As usually defined, the IC50 is the concentration that gives 50% inhibition. Low readings indicate inhibition by little substance, high ones a need for much substance.

Data set [1] can be described thus: Toxicity in Crl:CD Sprague-Dawley rat assessed as chloride level in blood at 100 mg/kg, po administered daily for 14 days (reference value: 104 +/-1.5 mEq/L). As to conditions: in vivo, 336 h, time 14 day. The class given is organism-based.
Data set [2] is described as follows: Toxicity in Crl:CD Sprague-Dawley rat assessed as triglyceride level in blood at 100 mg/kg, po administered daily for 14 days (reference value: 132 +/-30 mg/dL). It is filed as organism-based. The note with it: in vivo, 336 h, time 14 day.
Data set [3] can be described thus: Toxicity in Crl:CD Sprague-Dawley rat assessed as globulin level in blood at 100 mg/kg, po administered daily for 14 days (reference value: 1.6 +/-0.082 g/dL). It is filed as organism-based. As to conditions: in vivo, 336 h, time 14 day.
The nature of data set [4]: Toxicity in Crl:CD Sprague-Dawley rat assessed as alanine aminotransferase level in blood at 100 mg/kg, po administered daily for 14 days (reference value: 35.5+/-1.91 U/L). It is filed as organism-based. As to conditions: in vivo, 336 h, time 14 day.
Data set [5] relates to LOUCY. The data set is described as follows: Antitumor activity against human LOUCY cells assessed as cell growth inhibition treated for 10 to 15 days. The class given is functional. The note with it: time 10-15 day.
Data set [6] deals with MKN-45. The data set can be described thus: Antitumor activity against human MKN-45 cells assessed as cell growth inhibition treated for 10 to 15 days. The class given is functional. As to conditions: time 10-15 day.
Data set [7] deals with UACC-812. The data set is described as follows: Antitumor activity against human UACC-812 cells assessed as cell growth inhibition treated for 10 to 15 days. The class given is functional. The note with it: time 10-15 day.
Data set [8] has as its target CDK7/Cyclin H/MNAT1 (Homo sapiens) (UniProt P51946+P50613+P51948). The data set is described as follows: Inhibition of N-terminal GST-tagged full length human CDK7 (1 to 346 residues)/human CyclinH (1 to 323 residues)/human MAT1 (1 to 309 residues) expressed in baculovirus-infected Sf21 cells using CTD3 peptide as substrate at 1 uM in presence of ATP by Mobility shift assay.

For data set [9], the system named is Daudi. The data set can be described thus: Antitumor activity against human Daudi cells assessed as cell growth inhibition treated for 10 to 15 days. It is filed as functional. The note with it: time 10-15 day.
The test system of data set [10] is MDA-MB-415. The data set can be described thus: Antitumor activity against human MDA-MB-415 cells assessed as cell growth inhibition treated for 10 to 15 days. As to conditions: time 10-15 day. It is filed as functional.
Data set [11] addresses DNA (cytosine-5)-methyltransferase 3A (Homo sapiens, UniProt Q9Y6K1). The data set can be described thus: Inhibition of human DNMT3a using lambda DNA and [3H]SAM as substrate incubated for 30 mins to 1 hr by HotSpot kinase assay.
Data set [12] has as its system LS-513. The data set is described as follows: Antitumor activity against human LS-513 cells assessed as cell growth inhibition treated for 10 to 15 days. The class given is functional. As to conditions: time 10-15 day.
The test system of data set [13] is LNCaP-Clone-FGC. The data set can be described thus: Antitumor activity against human LNCaP clone FGC cells assessed as cell growth inhibition treated for 10 to 15 days. As to conditions: time 10-15 day. The class given is functional.
Data set [14] deals with EB2. The data set is described as follows: Antitumor activity against human EB2 cells assessed as cell growth inhibition treated for 10 to 15 days. It is filed as functional. As to conditions: time 10-15 day.
For data set [15], the system named is Granta-519. The data set can be described thus: Antitumor activity against human Granta-519 cells assessed as cell growth inhibition treated for 10 to 15 days. It is filed as functional. As to conditions: time 10-15 day.
The target in data set [16] is N-lysine methyltransferase KMT5A (Homo sapiens, UniProt Q9NQR1). The data set is described as follows: Inhibition of human SET8 using Nucleosomes and [3H]SAM as substrate incubated for 30 mins to 1 hr by HotSpot kinase assay.
Data set [17] has as its system K562. The data set can be described thus: Antitumor activity against human K562 cells assessed as cell growth inhibition treated for 10 to 15 days. It is filed as functional. As to conditions: time 10-15 day.
The test system of data set [18] is ST486. The data set is described as follows: Antitumor activity against human ST486 cells assessed as cell growth inhibition treated for 10 to 15 days. The class given is functional. As to conditions: time 10-15 day.
Data set [19] concerns the target Ephrin type-B receptor 2 (Homo sapiens) (UniProt P29323). The data set is described as follows: Inhibition of N-terminal GST-fused human EPHB2 cytoplasmic domain (581 to 987 residues) expressed in baculovirus-infected Sf21 cells using Blk/Lyntide as substrate at 1 uM in presence of ATP by Mobility shift assay.
In data set [20] the test system is OV-90. The data set can be described thus: Antitumor activity against human OV-90 cells assessed as cell growth inhibition treated for 10 to 15 days. As to conditions: time 10-15 day. The class given is functional.
Data set [21] relates to SK-ES1. The data set is described as follows: Antitumor activity against human SK-ES1 cells assessed as cell growth inhibition treated for 10 to 15 days. The class given is functional. The note with it: time 10-15 day.
In data set [22] the test system is ACHN. The data set is described as follows: Antitumor activity against human ACHN cells assessed as cell growth inhibition treated for 10 to 15 days. As to conditions: time 10-15 day. It is filed as functional.
In data set [23] the test system is MDA-MB-134-VI. The data set is described as follows: Antitumor activity against human MDA-MB-134-VI cells assessed as cell growth inhibition treated for 10 to 15 days. The class given is functional. As to conditions: time 10-15 day.
Data set [24] relates to KCL-22. The data set is described as follows: Antitumor activity against human KCL-22 cells assessed as cell growth inhibition treated for 10 to 15 days. The class given is functional. The note with it: time 10-15 day.
Data set [25] concerns SNU-423. The data set is described as follows: Antitumor activity against human SNU-423 cells assessed as cell growth inhibition treated for 10 to 15 days. It is filed as functional. As to conditions: time 10-15 day.
For data set [26], the system named is ATN-1. The data set can be described thus: Antitumor activity against human ATN-1 cells assessed as cell growth inhibition treated for 10 to 15 days. The note with it: time 10-15 day. It is filed as functional.
The target in data set [27] is DNA (cytosine-5)-methyltransferase 1 (Homo sapiens, UniProt P26358). The data set is described as follows: Inhibition of human DNMT1 using Poly (dl-dC) and [3H]SAM as substrate incubated for 30 mins to 1 hr by HotSpot kinase assay.
For data set [28], the system named is THP-1. The data set can be described thus: Antitumor activity against human THP-1 cells assessed as cell growth inhibition treated for 10 to 15 days. The class given is functional. As to conditions: time 10-15 day.
The subject of data set [29] is REH. The data set can be described thus: Antitumor activity against human REH cells assessed as cell growth inhibition treated for 10 to 15 days. The class given is functional. As to conditions: time 10-15 day.
In data set [30] the test system is SBC-5. The data set can be described thus: Antitumor activity against human SBC-5 cells assessed as cell growth inhibition treated for 10 to 15 days. The class given is functional. The note with it: time 10-15 day.
In data set [31] the test system is OAW-42. The data set is described as follows: Antitumor activity against human OAW-42 cells assessed as cell growth inhibition treated for 10 to 15 days. The class given is functional. The note with it: time 10-15 day.

Chain of DNA (cytosine-5)-methyltransferase 1 (P26358 whole entry): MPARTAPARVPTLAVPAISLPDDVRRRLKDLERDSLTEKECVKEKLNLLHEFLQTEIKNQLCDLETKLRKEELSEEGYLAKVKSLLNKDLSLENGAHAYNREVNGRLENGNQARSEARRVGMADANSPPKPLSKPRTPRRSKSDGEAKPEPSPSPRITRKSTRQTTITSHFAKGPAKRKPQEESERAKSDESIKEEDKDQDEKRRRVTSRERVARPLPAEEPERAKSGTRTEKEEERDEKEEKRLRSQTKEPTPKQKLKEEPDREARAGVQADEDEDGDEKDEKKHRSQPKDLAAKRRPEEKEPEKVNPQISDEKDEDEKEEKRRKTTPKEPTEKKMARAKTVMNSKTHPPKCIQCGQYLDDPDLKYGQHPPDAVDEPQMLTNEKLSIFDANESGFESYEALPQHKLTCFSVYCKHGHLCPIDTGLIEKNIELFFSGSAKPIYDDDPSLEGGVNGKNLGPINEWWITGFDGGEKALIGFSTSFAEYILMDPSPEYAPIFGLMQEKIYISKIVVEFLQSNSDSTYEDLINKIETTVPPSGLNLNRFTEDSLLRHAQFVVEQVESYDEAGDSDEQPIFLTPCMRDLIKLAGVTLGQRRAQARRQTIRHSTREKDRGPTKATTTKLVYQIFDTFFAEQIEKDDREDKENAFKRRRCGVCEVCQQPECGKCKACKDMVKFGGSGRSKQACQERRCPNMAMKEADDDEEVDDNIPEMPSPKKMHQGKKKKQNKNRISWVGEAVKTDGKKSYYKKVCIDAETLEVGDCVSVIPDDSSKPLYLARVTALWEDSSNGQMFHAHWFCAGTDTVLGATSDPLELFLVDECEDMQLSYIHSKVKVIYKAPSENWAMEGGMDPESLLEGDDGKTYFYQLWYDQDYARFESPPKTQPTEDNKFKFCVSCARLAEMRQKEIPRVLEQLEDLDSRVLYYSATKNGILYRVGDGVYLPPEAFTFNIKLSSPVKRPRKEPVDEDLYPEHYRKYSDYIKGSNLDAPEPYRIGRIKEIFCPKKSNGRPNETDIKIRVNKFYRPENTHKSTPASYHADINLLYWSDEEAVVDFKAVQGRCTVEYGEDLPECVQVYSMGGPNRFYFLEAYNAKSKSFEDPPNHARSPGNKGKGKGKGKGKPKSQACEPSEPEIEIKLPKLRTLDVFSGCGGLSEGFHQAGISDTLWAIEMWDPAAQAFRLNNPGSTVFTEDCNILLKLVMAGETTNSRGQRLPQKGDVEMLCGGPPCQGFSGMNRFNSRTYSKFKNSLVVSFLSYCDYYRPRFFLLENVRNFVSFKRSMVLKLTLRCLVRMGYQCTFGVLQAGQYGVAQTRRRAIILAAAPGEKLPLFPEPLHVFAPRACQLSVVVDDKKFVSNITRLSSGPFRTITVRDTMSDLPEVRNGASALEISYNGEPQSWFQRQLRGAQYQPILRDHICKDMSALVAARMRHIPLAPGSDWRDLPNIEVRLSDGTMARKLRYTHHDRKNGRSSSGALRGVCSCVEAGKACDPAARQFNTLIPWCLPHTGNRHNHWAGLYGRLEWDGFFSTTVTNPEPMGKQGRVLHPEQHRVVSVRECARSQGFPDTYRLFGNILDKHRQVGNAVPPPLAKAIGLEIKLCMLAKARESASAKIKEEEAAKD
Chain of N-lysine methyltransferase KMT5A (Q9NQR1 whole entry): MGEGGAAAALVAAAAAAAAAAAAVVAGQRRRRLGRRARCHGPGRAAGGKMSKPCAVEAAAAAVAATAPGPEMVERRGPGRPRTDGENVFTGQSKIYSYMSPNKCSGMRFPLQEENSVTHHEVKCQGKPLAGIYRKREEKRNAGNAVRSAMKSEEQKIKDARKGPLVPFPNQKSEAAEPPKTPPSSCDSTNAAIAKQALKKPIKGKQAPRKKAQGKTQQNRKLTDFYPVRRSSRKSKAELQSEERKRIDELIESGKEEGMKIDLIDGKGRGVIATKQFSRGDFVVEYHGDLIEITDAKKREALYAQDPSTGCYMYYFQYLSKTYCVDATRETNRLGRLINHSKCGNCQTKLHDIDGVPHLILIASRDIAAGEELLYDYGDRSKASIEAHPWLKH
Chain of Ephrin type-B receptor 2 (Homo sapiens) (P29323 whole entry, the tested form may be a part): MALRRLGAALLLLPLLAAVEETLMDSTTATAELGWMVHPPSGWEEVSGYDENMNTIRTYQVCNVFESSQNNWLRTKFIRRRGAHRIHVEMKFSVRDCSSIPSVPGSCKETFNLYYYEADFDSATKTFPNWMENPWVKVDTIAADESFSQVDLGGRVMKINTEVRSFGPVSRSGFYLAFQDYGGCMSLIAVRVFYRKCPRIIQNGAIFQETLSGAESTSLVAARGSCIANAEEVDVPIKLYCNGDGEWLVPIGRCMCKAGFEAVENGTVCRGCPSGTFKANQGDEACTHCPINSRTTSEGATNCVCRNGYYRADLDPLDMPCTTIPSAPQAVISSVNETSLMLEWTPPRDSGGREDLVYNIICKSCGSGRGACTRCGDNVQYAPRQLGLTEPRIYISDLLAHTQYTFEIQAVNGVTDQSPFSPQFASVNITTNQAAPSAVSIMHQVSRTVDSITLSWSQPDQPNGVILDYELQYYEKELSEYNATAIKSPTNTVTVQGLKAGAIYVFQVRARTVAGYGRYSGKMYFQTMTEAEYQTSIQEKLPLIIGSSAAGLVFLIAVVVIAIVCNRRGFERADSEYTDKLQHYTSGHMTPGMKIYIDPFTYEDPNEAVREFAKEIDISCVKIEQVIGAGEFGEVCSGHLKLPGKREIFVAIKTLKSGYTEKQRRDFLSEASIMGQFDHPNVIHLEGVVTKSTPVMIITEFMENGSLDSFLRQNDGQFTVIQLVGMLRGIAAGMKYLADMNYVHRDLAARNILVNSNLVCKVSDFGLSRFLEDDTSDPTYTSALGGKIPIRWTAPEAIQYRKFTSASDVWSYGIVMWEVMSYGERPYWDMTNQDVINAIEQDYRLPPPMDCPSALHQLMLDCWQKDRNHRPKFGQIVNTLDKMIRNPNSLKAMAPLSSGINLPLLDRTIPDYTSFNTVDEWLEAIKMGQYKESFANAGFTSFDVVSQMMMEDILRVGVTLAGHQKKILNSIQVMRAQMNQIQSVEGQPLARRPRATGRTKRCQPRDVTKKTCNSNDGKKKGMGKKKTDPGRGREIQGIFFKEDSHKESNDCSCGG
Chain of DNA (cytosine-5)-methyltransferase 3A (Q9Y6K1 whole entry, looked up): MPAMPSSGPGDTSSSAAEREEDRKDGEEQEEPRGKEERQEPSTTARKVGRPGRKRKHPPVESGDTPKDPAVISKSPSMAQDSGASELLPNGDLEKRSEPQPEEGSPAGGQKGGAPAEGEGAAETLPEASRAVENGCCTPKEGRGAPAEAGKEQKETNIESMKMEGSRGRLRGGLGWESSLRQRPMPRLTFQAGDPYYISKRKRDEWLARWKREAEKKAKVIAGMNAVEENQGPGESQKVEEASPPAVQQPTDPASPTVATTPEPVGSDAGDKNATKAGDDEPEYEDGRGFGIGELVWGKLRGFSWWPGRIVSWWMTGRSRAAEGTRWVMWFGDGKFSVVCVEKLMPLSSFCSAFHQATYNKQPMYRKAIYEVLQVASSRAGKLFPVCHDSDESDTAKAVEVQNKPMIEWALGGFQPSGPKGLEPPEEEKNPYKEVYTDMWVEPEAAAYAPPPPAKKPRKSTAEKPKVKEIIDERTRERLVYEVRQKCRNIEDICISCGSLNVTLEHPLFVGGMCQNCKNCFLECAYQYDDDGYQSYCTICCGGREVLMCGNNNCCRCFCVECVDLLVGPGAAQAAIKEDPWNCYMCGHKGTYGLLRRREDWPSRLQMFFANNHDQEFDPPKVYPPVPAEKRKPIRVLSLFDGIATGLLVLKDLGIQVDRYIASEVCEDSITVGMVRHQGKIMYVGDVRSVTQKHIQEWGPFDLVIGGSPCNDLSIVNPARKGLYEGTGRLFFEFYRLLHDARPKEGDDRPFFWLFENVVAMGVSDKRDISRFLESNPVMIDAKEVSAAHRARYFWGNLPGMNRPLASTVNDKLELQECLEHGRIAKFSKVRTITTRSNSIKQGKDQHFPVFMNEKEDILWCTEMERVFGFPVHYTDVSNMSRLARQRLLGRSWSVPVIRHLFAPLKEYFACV

With `Cc1cc(C)c(CNC(=O)c2cc(Br)c3c(c2C)O[C@@](C)([C@H]2CC[C@H](N(C)C)CC2)O3)c(=O)[nH]1`, the Activity in [1] is 105 mEq/L; in data set [2], 90 mg/dL; in data set [3] it was 1.55 g/dL; in data set [4], 27.5 U/L.

Take `Cc1cc(C)c(CNC(=O)c2cc(Cl)c3c(c2C)O[C@@](C)([C@H]2CC[C@H](N(C)C)CC2)O3)c(=O)[nH]1` [VALEMETOSTAT]: the GI50 in data set [5] is above 1 µM; in data set [6], above 1 µM; in data set [7], above 1 µM; in data set [9], above 1 µM; in [10], 0.0247 µM; in [12], above 1 µM. Besides, the 50% growth inhibitory concentration (GI50) in data set [13] was 0.00553 µM; in data set [14], above 1 µM; in data set [15], above 1 µM; in data set [17] it was 0.788 µM; in data set [18], above 1 µM; in data set [20] it was above 1 µM. Further, the GI50 in data set [21] was above 1 µM; in [22], above 1 µM; in [23], above 1 µM; in [24], 0.138 µM; in data set [25], above 1 µM; in data set [26] it was 0.0438 µM. Moreover, the 50% growth inhibitory concentration (GI50) in [28] is 0.0681 µM; in data set [29], above 1 µM; in [30] it was 0.022 µM; in [31], above 1 µM. Moreover, the inhibition was -6.7% in data set [8] and -6.2% in data set [19]. For the same compound, the IC50 in data set [11], in data set [16] and in data set [27] was 100 µM in each case.

The values above are taken from ChEMBL document CHEMBL5647694, “Novel orally bioavailable EZH1/2 dual inhibitors with greater antitumor efficacy than an EZH2 selective inhibitor” (Cancer Sci, 2017).
